Measured values taken from patent publication US9102648B1, “Bioavailable diacylhydrazine ligands for modulating the expression of exogenous genes via an ecdysone receptor complex” (Intrexon Corporation, priority 2003, dated 2015).
Read-outs that look alike come from different tables or passages of the source.

How the values were obtained:
[1] = system: mutated ecdysone receptor-based gene switch; assay: In vivo SEAP induction, ligand by IP injection; parameters: species or system C57BL/6 mouse; conditions: for Secreted Alkaline Phosphatase Day 2 / Secreted Alkaline Phosphatase Day 3 / Secreted Alkaline Phosphatase Day 7: IP 26 nmol ligand; for Secreted Alkaline Phosphatase (percentage of GS ™-E ligand induction) Day 2 / Secreted Alkaline Phosphatase (percentage of GS ™-E ligand induction) Day 3 / Secreted Alkaline Phosphatase (percentage of GS ™-E ligand induction) Day 11: mouse serum; for Secreted Alkaline Phosphatase (percentage of GS ™-E ligand induction) Day 2: IP 2.6 μmol ligand 3 days after electroporation, day 2 after ligand; for Secreted Alkaline Phosphatase (percentage of GS ™-E ligand induction) Day 3 / Secreted Alkaline Phosphatase (percentage of GS ™-E ligand induction) Day 11: IP 2.6 μmol ligand; for Secreted Alkaline Phosphatase (percentage of GS ™-E ligand induction) Day 3: day 3 after ligand; for Secreted Alkaline Phosphatase (percentage of GS ™-E ligand induction) Day 11: day 11 after ligand
Procedure: Applicants' ligands are useful in various applications including gene therapy, expression of proteins of interest in host cells, production of transgenic organisms, and cell-based assays. In vivo induction of a reporter enzyme with various ligands of the present invention was evaluated in a C57BL/6 mouse model system containing a gene switch.
Each element of the gene switch was on a separate plasmid. Receptor expression was under the control of a CMV promoter (SEQ ID NO: 15). Induction was evaluated by the amount of reporter protein expressed in the presence of ligand.
SEAP expression in serum of mice was evaluated after electroporation of the gene switch into mouse quadriceps. Mice were anesthetized with 2 μL/g of a mixture of ketamine (100 mg/mL) and xylazine (20 mg/mL). Animals were then shaved, DNA vectors injected into the muscle in a volume of 2×50 μL polyglutamic acid (12 mg/mL water), electrode conductivity gel applied, and an electrode caliber (1 cm×1 cm; model 384) was placed on hind leg. The muscle was electroporated with 200 V/cm, 8 times, for 20 msec/pulse, at 1 sec time intervals. The transverse electrical field direction was reversed after the animals received half of the pulses. Electroporation was performed with an ECM 830 electroporator from BTX Molecular Delivery Systems.
In some experiments mice received an intraperitoneal injection (IP) of 2.6 μmol of ligand in 50 μL of DMSO 3 days after electroporation of the gene switch. In other experiments the concentration of ligand was decrease to 26 nmol/50 μL of DMSO/mouse. SEAP expression was evaluated 2-11 days after ligand administration. In other experiments ligand was administered in rodent chow. The chow was prepared by dissolving 2 g of ligand in 20 mL of acetone and adding it to 1 kg of LabDiet 5010 autoclavable chow from Purina Mills. This was thoroughly mixed in a Hobart mixer and then mixed for an additional 15 min in a Cross Blend mixer. Animals received chow ad libitum for 1, 2, or 3 days. All values are the average from four animals. Background SEAP in sera from animals treated with vector alone without ligand addition was 0-11 ng/mL serum.
Mouse serum was obtained by centrifugation of blood acquired by retroorbital bleeding with a small glass capillary tube. SEAP quantification was determined using a Clontech Great Escape chemiluminescence kit and by comparison with the Clontech SEAP standard.
Table 9: In vivo evaluation of ligand-mediated induction of a mutated ecdysone receptor-based gene switch. SEAP expression in serum of mice was evaluated after electroporation of the gene expression cassettes into mouse quadriceps. Mice received an IP injection of 2.6 μmol of ligand 3 days after electroporation. SEAP expression was evaluated 2-11 days after ligand administration. Each dose group was composed of four animals. Percentage of GS™-E ligand induction was determined by averaging SEAP expression from four animals divided by the average SEAP expression induced with GS™-E ligand and then multiplying by 100.
Table 10: Induction of gene switch expression with low concentrations of ligand. SEAP expression in serum of mice was evaluated after electroporation of the gene expression cassettes into mouse quadriceps. Mice received an IP injection of 26 nmol of ligand or 130 nmol GS™-E ligand 3 days after electroporation. SEAP expression was evaluated 2-7 days after ligand administration. Values are the average from 4 animals.

[2] = molecular target: GAL4 DBD (1-147)-CfEcR(DEF)/VP16AD-βRXREF-LmUSPEF (Choristoneura fumiferana, UniProt O77240); assay: cell-based; conditions: for 27-63 assay Rel Max FI: maximum fold induction at any concentration relative to that of GS-E ligand, CHO 27-63 cells; for fold induction at 3.3 µM: read-out: Fold Induction, 27-63 Assay, 3.3 uM; for fold induction at 33 µM: read-out: Fold Induction, 27-63 Assay, 33 uM; for Fold Induction, 27-63 Assay, 3.3 uM: 3.3 uM ligand; for Fold Induction, 27-63 Assay, 3.3 uM / Fold Induction, 27-63 Assay, 33 uM: RLU ligand treated / RLU DMSO treated cells; for Fold Induction, 27-63 Assay, 33 uM: 33 uM ligand
[3] = read-out: 27-63 assay EC50, CHO 27-63 stable cell line, luciferase reporter, average of two wells

Compound | Secreted Alkaline Phosphatase Day 2 [1] | Secreted Alkaline Phosphatase Day 3 [1] | Secreted Alkaline Phosphatase Day 7 [1] [ng/ml mouse sera] | Secreted Alkaline Phosphatase (percentage of GS ™-E ligand induction) Day 2 [1] | Secreted Alkaline Phosphatase (percentage of GS ™-E ligand induction) Day 3 [1] | Secreted Alkaline Phosphatase (percentage of GS ™-E ligand induction) Day 11 [1] | EC50 [2] [nM] | 27-63 assay Rel Max FI [2] | fold induction at 3.3 µM [2] | fold induction at 33 µM [2] | Fold Induction, 27-63 Assay, 3.3 uM ([2]; average of two wells) | Fold Induction, 27-63 Assay, 33 uM ([2]; average of two wells) | EC50 [2, 3] [nM]
CCC(N(NC(=O)c1cccc(OC)c1C)C(=O)c1cc(C)cc(C)c1)C(C)(C)C (centres unmarked) [RG-115819, 3,5-dimethyl-benzoic acid N-(1-ethyl-2,2-dimethyl-propyl)-N′-(3-methoxy-2-methyl-benzoyl)-hydrazide] | 5,984 ng/ml mouse sera | 4,096 ng/ml mouse sera | 453 | 172 percentage of GS ™-E ligand induction | 215 percentage of GS ™-E ligand induction | 3,008 percentage of GS ™-E ligand induction | 25 | 1.045 | 1970 | 2370 |  |  | 
CCCC(N(NC(=O)c1cccc(OC)c1C)C(=O)c1cc(C)cc(C)c1)C(C)(C)C (centres unmarked) [RG-115823] | 3,788 ng/ml mouse sera | 2,705 ng/ml mouse sera | 373 | 129 percentage of GS ™-E ligand induction | 183 percentage of GS ™-E ligand induction | 2,652 percentage of GS ™-E ligand induction |  | 1.069 |  |  | 2093 | 1025 | 11
CCc1c(OC)cccc1C(=O)NN(C(=O)c1cc(C)cc(C)c1)C(CC)C(C)(C)C (centres unmarked) [RG-115832] | 2,349 ng/ml mouse sera | 1,807 ng/ml mouse sera | 149 | 147 percentage of GS ™-E ligand induction | 189 percentage of GS ™-E ligand induction | 4,183 percentage of GS ™-E ligand induction |  | 1.075 |  |  | 2063 | 1435 | 35
CCc1c(OC)cccc1C(=O)NN(C(=O)c1cc(OC)c(C)c(OC)c1)C(CC)C(C)(C)C (centres unmarked) [RG-115831] |  |  |  | 118 percentage of GS ™-E ligand induction | 121 percentage of GS ™-E ligand induction | 105 percentage of GS ™-E ligand induction |  | 1.366 |  |  | 2063 | 1435 | 96
COc1ccc(C)cc1C(=O)N(NC(=O)c1cccc(OC)c1C)C(C)(C)C [RG-100766] |  |  |  |  |  |  |  | 0.944 |  |  | 931 | 1993 | 3420
CCc1c(C(=O)NN(C(=O)c2ccc(F)c(C(F)(F)F)c2)C(C)(C)C)ccc2c1OCCO2 [RG-115280] |  |  |  |  |  |  |  | 0.254 |  |  | 9 | 422 | 11000
Cc1c(C(=O)NN(C(=O)c2cccc(F)c2)C(C)(C)C)ccc2c1CCCO2 [RG-115278] |  |  |  |  |  |  |  | 0.720 |  |  | 1250 | 906 | 885
COc1cc(C(=O)N(NC(=O)c2ccc3c(c2C)CCCO3)C(C)(C)C)cc(OC)c1C [RG-115055] |  |  |  |  |  |  |  | 1.341 |  |  | 4499 | 2725 | 318
CCc1c(OC)cccc1C(=O)NN(C(=O)c1cc(C)cc(C)c1)C(C)(C)CO[Si](C)(C)C(C)(C)C [RG-115665, 2-ethyl-3-methoxy-benzoic acid N′-[2-(tert-butyl-dimethyl-silanyloxy)-1,1-dimethyl-ethyl]-N′-(3,5-dimethyl-benzoyl)-hydrazide] |  |  |  |  |  |  | 5490 | 0.01 | 2 |  |  |  | 
COc1ccc(OC)c(C(=O)N(NC(=O)c2cccc(C)c2C)C(C)(C)C)c1 [RG-100763] |  |  |  |  |  |  |  | 0.856 |  |  | 107 | 1609 | 5300
COc1ccccc1C(=O)N(NC(=O)c1ccc2c(c1C)CCCO2)C(C)(C)C [RG-115102] |  |  |  |  |  |  |  | 0.667 |  |  | 1154 | 971 | 491
Cc1c(C(=O)NN(C(=O)c2cc(F)c(F)c(F)c2F)C(C)(C)C)ccc2c1CCCO2 [RG-115518] |  |  |  |  |  |  |  | 0.866 |  |  | 1640 | 1126 | 1050
CCc1c(C(=O)NN(C(=O)c2cc(F)ccc2F)C(C)(C)C)ccc2c1OCCO2 [RG-115508] |  |  |  |  |  |  |  | 0.719 |  |  | 1195 | 969 | 1030
CCc1c(OC)cccc1C(=O)NN(C(=O)c1cc(C)cc(C)c1)C(C)(C)C=NCCO [RG-115511] |  |  |  |  |  |  |  | 0.74 |  |  | 1 | 1155 | 12000
Cc1c(C(=O)NN(C(=O)c2ccc(F)cc2)C(C)(C)C)ccc2c1OCCO2 [RG-100425] |  |  |  |  |  |  |  | 0.671 |  |  | 1156 | 1099 | 370
Cc1c(C(=O)NN(C(=O)c2cc(F)c(Cl)cc2Cl)C(C)(C)C)ccc2c1CCCO2 [RG-115539] |  |  |  |  |  |  |  | 0.595 |  |  | 1076 | 534 | 1180
CCc1c(OC)cccc1C(=O)NN(C(=O)c1cc(C)cc(C)c1)C(C)(C)C=O [RG-115407, 2-ethyl-3-methoxy-benzoic acid N′-(3,5-dimethyl-benzoyl)-N′-(1,1-dimethyl-2-oxo-ethyl)-hydrazide] |  |  |  |  |  |  | 1060 | 0.932 | 1610 | 1520 |  |  | 
CCc1c(OC)cccc1C(=O)NN(C(=O)c1cc(C)cc(C)c1)C(C)(C)C=NNC(=O)C(N)=O [RG-115597, oxamic carbazide of 2-ethyl-3-methoxy-benzoic acid N′-(3,5-dimethyl-benzoyl)-N′-(1,1-dimethyl-2-oxo-ethyl)-hydrazide] |  |  |  |  |  |  |  | 1.26 |  |  | 2 | 2065 | 9830
CCc1c(OC)cccc1C(=O)NN(C(=O)c1cc(C)cc(C)c1)C(C)(C)C=NNC(N)=O [RG-115653, semicarbazide of 2-ethyl-3-methoxy-benzoic acid N′-(3,5-dimethyl-benzoyl)-N′-(1,1-dimethyl-2-oxo-ethyl)-hydrazide] |  |  |  |  |  |  |  | 0.53 |  |  | 1 | 832 | 19800
Cc1c(C(=O)NN(C(=O)c2cc(F)c(F)cc2F)C(C)(C)C)ccc2c1CCCO2 [RG-115229] |  |  |  |  |  |  |  | 0.735 |  |  | 2829 | 1423 | 1150
COc1ccccc1C(=O)N(NC(=O)c1ccc2c(c1)OCCO2)C(C)(C)C [RG-100492] |  |  |  |  |  |  |  | 0.916 |  |  | 4 | 1378 | 11800
